Read-outs that look alike come from different tables or passages of the source. Each block holds one compound with its values, some of them ahead of it.
Key:
[1] = Pharmacokinetics of acteoside and its metabolites in rat plasma after oral acteoside (UPLC-QqQ-MS); type: in vivo, male Sprague–Dawley rats; details: for AUC(0-inf) / AUC(0-t) / Tmax / half-life / Cmax / MRT last / MRT inf: male, Sprague-Dawley, rat, plasma, po, 100 mg/kg; for MRT last: read-out: MRT(0-t); for MRT inf: read-out: MRT(0-∞); for Cmax of metabolite, WCP group relative to UCP group: following oral acteoside 100 mg/kg
Text: After a week of acclimatization, rats were split into three groups at random: the wine-processed Cistanche polysaccharide group (WCP group), the unprocessed Cistanche polysaccharide group (UCP group), and the blank control group (Control group). Six rats each group were raised in the same cage for breeding. Prior to the experiment, provide water and regular laboratory meals to the rats at will and fast for one night before the experiment. In order to ensure the continuous intake of Cistanche polysaccharides, it was calculated according to the requirements of the Chinese Pharmacopoeia ([16]) based on the daily dosage of Cistanche for adults, the polysaccharide yield of Cistanche polysaccharides and the equivalent conversion formula of the drug administration between humans and rats ([17]). An appropriate amount of raw Cistanche polysaccharide and Cistanche wine polysaccharide were weighed, dissolved in pure water, and prepared with 15.06 g·kg^-1 administration solution for continuous administration for 21 days. After fasting overnight, on day 22, two fresh fecal samples were collected from each rat, put straight into a sterile tube from the anus, avoiding contact with skin or urine, and stored in a -80°C freezer immediately after freezing with liquid nitrogen for subsequent analysis. For the pharmacokinetics, in a 1.5 mL heparinized centrifuge tube, 0.3 mL of continuous blood collected from the orbital vein was taken from 0 min, 5 min, 10 min, 30 min, 1.0 […], and 36 h following oral administration of acteoside (100 mg/kg) in the three groups. Using a cryo-centrifuge, plasma samples were produced by centrifuging at 800 g for ten minutes at 4°C. After that, plasma samples were gathered and kept for later examination at -80°C. […] Following this,20 μL of genistein (1 μg/mL IS) solution and 600 μL of cold acetonitrile were then included and centrifuged for 5 min, the […] proteins were separated by vortexing for 5 min, and then they were spun down for 15 min at 4°C at 14,000 rpm. The supernatant was gathered and dried at 40°C with a light nitrogen stream. The dried remnant was then immersed in 100 μL of 25% aqueous acetonitrile fluid, and centrifugation was performed again for 10 min at 4°C at 14,000 rpm. Ultimately, the LC-MS/MS system was injected with 2 μL of the liquid for analysis. A 1.7 μm and 2.1 × 100 mm I.D. […] With a column temperature of 30°C, the flow rate was fixed at 0.3 mL/min. In the mass spectrometry analysis, negative ionization mode was performed with the following optimized parameters: capillary voltage, 3.0 kV; desolvation temperature, 400°C. […] Thus, multiple reaction monitoring (MRM) of the acteoside transitions at 623.37 → 161.02 m/z, caffeic acid transitions at 179.01 → 135.03 m/z, hydroxytyrosol transitions at 153.03 → 122.95 m/z, genistein transitions at 269.08 → 132.57 m/z was used for quantification. […] Data were processed using Masslynx workstation data acquisition and qualitative analysis software (4.1, Waters, USA). Using the DAS program (Chinese Pharmacological Society, Beijing, China), pharmacokinetic parameters were estimated.

[2] = type: physicochemical; details: rat; for Short-term stability (RSD,%): 4 h; for Post-preparation stability (RSD,%): 24 h; for Long-term stability (RSD,%): 15 days
Procedure: A 4°C freezer was then used to make and store the stock solution (1 mg/mL). Moreover, 50% methanol was used to dilute 1 μg/mL of the IS working solution. […] Before being analyzed, the entire set of QC samples were kept at −80°C. An examination of stability using QC samples at low, medium, and high doses. Short-term stability was measured by injecting samples after staying 4 h at room temperature (25°C). After preparation, the sample was kept at 4°C for 24 h, and the dosage was injected to ascertain the sample’s stability. To determine long-term stability, samples were frozen at −80°C for 15 days before being injected. By thawing the samples three times in a row at room temperature and a freezer at −20°C, the freeze–thaw stability was ascertained.

[3] = acteoside in rat plasma, oral acteoside 100 mg/kg, Control group, n = 6
[4] = acteoside in rat plasma, oral acteoside 100 mg/kg, UCP group, n = 6
[5] = acteoside in rat plasma, oral acteoside 100 mg/kg, WCP group, n = 6
[6] = metabolite in rat plasma following oral acteoside 100 mg/kg, Control group, n = 6
[7] = metabolite in rat plasma following oral acteoside 100 mg/kg, Control group, n = 6, read-out: Cmax
[8] = metabolite in rat plasma following oral acteoside 100 mg/kg, UCP group, n = 6
[9] = metabolite in rat plasma following oral acteoside 100 mg/kg, UCP group, n = 6, read-out: Cmax
[10] = metabolite in rat plasma following oral acteoside 100 mg/kg, WCP group, n = 6
[11] = metabolite in rat plasma following oral acteoside 100 mg/kg, WCP group, n = 6, read-out: Cmax

- AUC(0-inf) [1, 3]: 4360 ± 130 ng·h/mL
- AUC(0-t) [1, 3]: 4200 ± 153 ng·h/mL
- Tmax [1, 3]: 0.5 h
- half-life [1, 3]: 2.06 ± 1.3 h
- Cmax ([1]; acteoside in rat plasma, oral acteoside 100 mg/kg, Control group, n = 6, read-out: Cmax): 863 ± 63.4 ng/mL
- MRT last [1, 3]: 3.94 ± 0.165 h
- MRT inf [1, 3]: 4.34 ± 0.512 h
- AUC(0-t) ([1]; acteoside in rat plasma, oral acteoside 100 mg/kg, UCP group (21 days UCP before), n = 6): 4980 ± 231 ng·h/mL
- AUC(0-inf) [1, 4]: 5050 ± 267 ng·h/mL
- Tmax [1, 4]: 0.75 h
- Cmax ([1]; acteoside in rat plasma, oral acteoside 100 mg/kg, UCP group, n = 6, read-out: Cmax): 1030 ± 98.3 ng/mL
- MRT last [1, 4]: 4.94 ± 0.165 h
- MRT inf [1, 4]: 5.29 ± 0.629 h
- AUC(0-t) ([1]; acteoside in rat plasma, oral acteoside 100 mg/kg, WCP group (21 days WCP before), n = 6): 6660 ± 543 ng·h/mL
- AUC(0-inf) [1, 5]: 6690 ± 633 ng·h/mL
- Tmax [1, 5]: 0.75 h
- Cmax ([1]; acteoside in rat plasma, oral acteoside 100 mg/kg, WCP group, n = 6, read-out: Cmax): 1590 ± 103 ng/mL
- MRT last [1, 5]: 4.996 ± 0.032 h
- MRT inf [1, 5]: 5.6 ± 0.837 h
- Cmax ([1]; rat plasma, oral acteoside 100 mg/kg, Control group, read-out: mean Cmax of acteoside): 863 ng/mL
- Cmax ([1]; rat plasma, oral acteoside 100 mg/kg, UCP group, read-out: mean Cmax of acteoside): 1030 ng/mL
- Cmax ([1]; rat plasma, oral acteoside 100 mg/kg, WCP group, read-out: mean Cmax of acteoside): 1590 ng/mL
- AUC(0-∞) of acteoside, increase after UCP relative to control ([1]; rats, oral acteoside 100 mg/kg): 1.16 times
- AUC(0-∞) of acteoside, increase after WCP relative to control ([1]; rats, oral acteoside 100 mg/kg): 1.54 times
- Cmax of acteoside, UCP group relative to control group ([1]; rats, oral acteoside 100 mg/kg): 1.19 times
- Cmax of acteoside, WCP group relative to control group ([1]; rats, oral acteoside 100 mg/kg): 1.84 times
- t1/2 of acteoside, WCP group relative to UCP group ([1]; rats, oral acteoside 100 mg/kg): 1.18 times
- Freeze–thaw stability (RSD,%) ([2]; 25 ng/mL): 7.93%
- Freeze–thaw stability (RSD,%) ([2]; 200 ng/mL): 4.56%
- Freeze–thaw stability (RSD,%) ([2]; 1000 ng/mL): 4.45%
- Short-term stability (RSD,%) ([2]; 25 ng/mL): 6.91%
- Short-term stability (RSD,%) ([2]; 200 ng/mL): 3.15%
- Short-term stability (RSD,%) ([2]; 1000 ng/mL): 2.79%
- Post-preparation stability (RSD,%) ([2]; 25 ng/mL): 7.03%
- Post-preparation stability (RSD,%) ([2]; 200 ng/mL): 3.46%
- Post-preparation stability (RSD,%) ([2]; 1000 ng/mL): 3.68%
- Long-term stability (RSD,%) ([2]; 25 ng/mL): 8.28%
- Long-term stability (RSD,%) ([2]; 200 ng/mL): 6.67%
- Long-term stability (RSD,%) ([2]; 1000 ng/mL): 4.99%
Structure (SMILES): C[C@@H]1O[C@@H](O[C@@H]2[C@@H](O)[C@H](OCCc3ccc(O)c(O)c3)O[C@H](CO)[C@H]2OC(=O)/C=C/c2ccc(O)c(O)c2)[C@H](O)[C@H](O)[C@H]1O [Acteoside, acteoside]

- AUC(0-inf) [1, 6]: 110 ± 15.4 ng·h/mL
- AUC(0-t) [1, 6]: 76.1 ± 13.3 ng·h/mL
- Tmax [1, 6]: 0.75 h
- half-life [1, 6]: 2.17 ± 0.693 h
- Cmax [1, 7]: 30.4 ± 14.2 ng/mL
- MRT last [1, 6]: 1.56 ± 0.172 h
- MRT inf [1, 6]: 2.51 ± 0.273 h
- AUC(0-inf) [1, 8]: 117 ± 13.3 ng·h/mL
- AUC(0-t) [1, 8]: 100 ± 17.7 ng·h/mL
- Tmax [1, 8]: 0.75 h
- Cmax [1, 9]: 44.1 ± 15.8 ng/mL
- MRT last [1, 8]: 1.54 ± 0.166 h
- MRT inf [1, 8]: 2.18 ± 0.267 h
- AUC(0-inf) [1, 10]: 144 ± 26.7 ng·h/mL
- AUC(0-t) [1, 10]: 125 ± 25.9 ng·h/mL
- Tmax [1, 10]: 0.75 h
- half-life [1, 10]: 1.29 ± 0.914 h
- Cmax [1, 11]: 55.5 ± 16.9 ng/mL
- MRT last [1, 10]: 1.52 ± 0.161 h
- MRT inf [1, 10]: 2.1 ± 0.256 h
- Cmax of metabolite, WCP group relative to UCP group ([1]; rats): 1.26 times
- Freeze–thaw stability (RSD,%) ([2]; 25 ng/mL): 9.14%
- Freeze–thaw stability (RSD,%) ([2]; 200 ng/mL): 8.23%
- Freeze–thaw stability (RSD,%) ([2]; 1000 ng/mL): 7.08%
- Short-term stability (RSD,%) ([2]; 25 ng/mL): 7.78%
- Short-term stability (RSD,%) ([2]; 200 ng/mL): 7.34%
- Short-term stability (RSD,%) ([2]; 1000 ng/mL): 4.91%
- Post-preparation stability (RSD,%) ([2]; 25 ng/mL): 8.33%
- Post-preparation stability (RSD,%) ([2]; 200 ng/mL): 7.87%
- Post-preparation stability (RSD,%) ([2]; 1000 ng/mL): 6.87%
- Long-term stability (RSD,%) ([2]; 25 ng/mL): 9.75%
- Long-term stability (RSD,%) ([2]; 200 ng/mL): 8.56%
- Long-term stability (RSD,%) ([2]; 1000 ng/mL): 8.43%
Structure (SMILES): O=C(O)/C=C/c1ccc(O)c(O)c1 [Caffeic acid, caffeic acid]

- AUC(0-inf) [1, 6]: 42.5 ± 4.24 ng·h/mL
- AUC(0-t) [1, 6]: 40.6 ± 3.24 ng·h/mL
- Tmax [1, 6]: 0.25 h
- half-life [1, 6]: 0.813 ± 0.129 h
- Cmax [1, 7]: 30.3 ± 10.9 ng/mL
- MRT last [1, 6]: 1.2 ± 0.132 h
- MRT inf [1, 6]: 1.38 ± 0.145 h
- AUC(0-inf) [1, 8]: 60.5 ± 5.72 ng·h/mL
- AUC(0-t) [1, 8]: 56.5 ± 5.41 ng·h/mL
- Tmax [1, 8]: 0.25 h
- half-life [1, 8]: 0.908 ± 0.106 h
- Cmax [1, 9]: 44.4 ± 14 ng/mL
- MRT last [1, 8]: 1.19 ± 0.124 h
- MRT inf [1, 8]: 1.46 ± 0.153 h
- AUC(0-inf) [1, 10]: 91.3 ± 6.92 ng·h/mL
- AUC(0-t) [1, 10]: 90.6 ± 6.73 ng·h/mL
- Tmax [1, 10]: 0.25 h
- half-life [1, 10]: 0.537 ± 0.116 h
- Cmax [1, 11]: 71.4 ± 32 ng/mL
- MRT last [1, 10]: 1.27 ± 0.139 h
- MRT inf [1, 10]: 1.54 ± 0.168 h
- Cmax of metabolite, WCP group relative to UCP group ([1]; rats): 1.61 times
- Freeze–thaw stability (RSD,%) ([2]; 25 ng/mL): 7.04%
- Freeze–thaw stability (RSD,%) ([2]; 200 ng/mL): 5.78%
- Freeze–thaw stability (RSD,%) ([2]; 1000 ng/mL): 4.24%
- Short-term stability (RSD,%) ([2]; 25 ng/mL): 5.34%
- Short-term stability (RSD,%) ([2]; 200 ng/mL): 3.26%
- Short-term stability (RSD,%) ([2]; 1000 ng/mL): 2.44%
- Post-preparation stability (RSD,%) ([2]; 25 ng/mL): 6.32%
- Post-preparation stability (RSD,%) ([2]; 200 ng/mL): 4.89%
- Post-preparation stability (RSD,%) ([2]; 1000 ng/mL): 3.21%
- Long-term stability (RSD,%) ([2]; 25 ng/mL): 7.78%
- Long-term stability (RSD,%) ([2]; 200 ng/mL): 5.86%
- Long-term stability (RSD,%) ([2]; 1000 ng/mL): 4.63%
Structure (SMILES): OCCc1ccc(O)c(O)c1 [Hydroxytyrosol, hydroxytyrosol]
